Source: ChEMBL document CHEMBL1201861, “Genomics of Drug Sensitity in Cancer screening data, Wellcome Trust Sanger Institute”

Legend:
Assay in all cases: cells
8-MG-BA = assay type: functional, cell-based, Homo sapiens; conditions: Homo sapiens, 8-MG-BA;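 note: growth inhibition of 8-MG-BA cells, read out with a cell viability assay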
Description: SANGER: Inhibition of human 8-MG-BA cell growth in a cell viability assay.

A498 = assay type: functional, cell-based, Homo sapiens; conditions: Homo sapiens, A498;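 note: growth inhibition of human A498 cells, read out with a cell viability assay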
Description: SANGER: Inhibition of human A498 cell growth in a cell viability assay.

D283 Med = assay type: functional, cell-based, Homo sapiens; conditions: Homo sapiens, D283 Med
Description: SANGER: Inhibition of human D-283MED cell growth in a cell viability assay.

TE-1 = assay type: functional, cell-based, Homo sapiens; conditions: Homo sapiens, TE-1;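 note: growth inhibition of the human TE-1 cell line, read out with a cell viability assay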
Description: SANGER: Inhibition of human TE-1 cell growth in a cell viability assay.

LS-411N = assay type: functional, cell-based, Homo sapiens; conditions: Homo sapiens, LS-411N
C2BBe1 = assay type: functional, cell-based, Homo sapiens; conditions: Homo sapiens, C2BBe1;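 note: growth inhibition of C2BBe1 cells, read out through a viability assay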
Description: SANGER: Inhibition of human C2BBe1 cell growth in a cell viability assay.

SJSA-1 = assay type: functional, cell-based, Homo sapiens; conditions: Homo sapiens, SJSA-1;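 note: growth inhibition of human SJSA-1 cells, read out through a cell viability measurement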
Description: SANGER: Inhibition of human SJSA-1 cell growth in a cell viability assay.

A3-KAW = assay type: functional, cell-based, Homo sapiens; conditions: Homo sapiens, A3-KAW;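 note: growth inhibition of human A3-KAW cells, read out with a cell viability assay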
Description: SANGER: Inhibition of human A3-KAW cell growth in a cell viability assay.

D-247MG = assay type: functional, cell-based; conditions: Homo sapiens
Description: SANGER: Inhibition of human D-247MG cell growth in a cell viability assay.

NCI-N87 = assay type: functional, cell-based; conditions: Homo sapiens;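 note: growth inhibition of human NCI-N87 cells, read out with a cell viability assay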
Description: SANGER: Inhibition of human NCI-N87 cell growth in a cell viability assay.

IST-MEL1 = assay type: functional, cell-based, Homo sapiens; conditions: Homo sapiens, IST-MEL1;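 note: growth inhibition of the cell line, read out with a cell viability assay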
Description: SANGER: Inhibition of human IST-MEL1 cell growth in a cell viability assay.

NOMO-1 = assay type: functional, cell-based, Homo sapiens; conditions: Homo sapiens, NOMO-1;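 note: growth inhibition of human NOMO-1 cells measured by a cell viability assay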
Description: SANGER: Inhibition of human NOMO-1 cell growth in a cell viability assay.

SK-PN-DW = assay type: functional, cell-based, Homo sapiens; conditions: Homo sapiens, SK-PN-DW;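 note: growth inhibition measured with a viability assay on these cells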
Description: SANGER: Inhibition of human SK-PN-DW cell growth in a cell viability assay.

DU-4475 = assay type: functional, cell-based, Homo sapiens; conditions: Homo sapiens, DU-4475
Description: SANGER: Inhibition of human DU-4475 cell growth in a cell viability assay.

MHH-PREB-1 = assay type: functional, cell-based, Homo sapiens; conditions: Homo sapiens, MHH-PREB-1;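 note: cell viability assay measuring inhibition of proliferation of human MHH-PREB-1 cells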
Description: SANGER: Inhibition of human MHH-PREB-1 cell growth in a cell viability assay.

HL-60 = assay type: functional, cell-based, Homo sapiens; conditions: Homo sapiens, HL-60;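 note: growth inhibition of human HL-60 cells, read out with a cell viability assay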
Description: SANGER: Inhibition of human HL-60 cell growth in a cell viability assay.

SCH = assay type: functional, cell-based, Homo sapiens; conditions: Homo sapiens, SCH;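 note: growth inhibition of human SCH cells, read out in a cell viability assay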
Description: SANGER: Inhibition of human SCH cell growth in a cell viability assay.

SNB-75 = assay type: functional, cell-based, Homo sapiens; conditions: Homo sapiens, SNB-75;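 note: cell viability assay measuring growth inhibition of human SNB-75 cells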
Description: SANGER: Inhibition of human SNB75 cell growth in a cell viability assay.

OCUB-M = assay type: functional, cell-based; conditions: Homo sapiens;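 note: growth inhibition of the cancer cell line, read out through a cell viability assay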
Description: SANGER: Inhibition of human OCUB-M cell growth in a cell viability assay.

ES5 = assay type: functional, cell-based, Homo sapiens; conditions: Homo sapiens, ES5;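 note: growth inhibition of human ES5 cells, read out by a cell viability assay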
Description: SANGER: Inhibition of human ES5 cell growth in a cell viability assay.

MC116 = assay type: functional, cell-based, Homo sapiens; conditions: Homo sapiens, MC116;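 note: growth inhibition of MC116 cells, read out with a cell viability assay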
Description: SANGER: Inhibition of human MC116 cell growth in a cell viability assay.

TK-10 = assay type: functional, cell-based, Homo sapiens; conditions: Homo sapiens, TK-10;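 note: growth inhibition of TK-10 cells, read out in a cell viability assay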
Description: SANGER: Inhibition of human TK10 cell growth in a cell viability assay.

HT-144 = assay type: functional, cell-based, Homo sapiens; conditions: Homo sapiens, HT-144
Description: SANGER: Inhibition of human HT-144 cell growth in a cell viability assay.

GAK = assay type: functional, cell-based, Homo sapiens; conditions: Homo sapiens, GAK;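 note: cell growth inhibition read out by a cell viability assay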
Description: SANGER: Inhibition of human GAK cell growth in a cell viability assay.

NB13 = assay type: functional, cell-based, Homo sapiens; conditions: Homo sapiens, NB13;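 note: cell viability readout measuring growth inhibition of human NB13 cells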
Description: SANGER: Inhibition of human NB13 cell growth in a cell viability assay.

Becker = assay type: functional, cell-based, Homo sapiens; conditions: Homo sapiens, Becker;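 note: growth inhibition of Becker cells, read out with a cell viability assay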
Description: SANGER: Inhibition of human Becker cell growth in a cell viability assay.

U-87 MG = assay type: functional, cell-based, Homo sapiens, U-87MG ATCC; conditions: Homo sapiens, U-87 MG;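 note: growth inhibition of the cells measured with a viability assay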
Description: SANGER: Inhibition of human U-87-MG cell growth in a cell viability assay.

DSH1 = assay type: functional, cell-based; conditions: Homo sapiens;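 note: growth inhibition of human DSH1 cells, measured with a cell viability readout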
Description: SANGER: Inhibition of human DSH1 cell growth in a cell viability assay.

MEG-01 = assay type: functional, cell-based, Homo sapiens; conditions: Homo sapiens, MEG-01;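 note: growth inhibition of MEG-01 cells, read out by a cell viability assay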
Description: SANGER: Inhibition of human MEG-01 cell growth in a cell viability assay.

BB49-HNC = assay type: functional, cell-based, Homo sapiens; conditions: Homo sapiens, BB49-HNC;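 note: cell viability assay read-out, reported as inhibition of BB49-HNC cell growth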
Description: SANGER: Inhibition of human BB49-HNC cell growth in a cell viability assay.

GT3TKB = assay type: functional, cell-based, Homo sapiens; conditions: Homo sapiens, GT3TKB;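 note: growth inhibition of the cell line, read out with a cell viability assay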
Description: SANGER: Inhibition of human GT3TKB cell growth in a cell viability assay.

ES4 = assay type: functional, cell-based, Homo sapiens; conditions: Homo sapiens, ES4;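 note: growth inhibition of human ES4 cells, read out by a cell viability assay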
Description: SANGER: Inhibition of human ES4 cell growth in a cell viability assay.

LNCaP-Clone-FGC = assay type: functional, cell-based, Homo sapiens; conditions: Homo sapiens, LNCaP-Clone-FGC
Description: SANGER: Inhibition of human LNCaP-Clone-FGC cell growth in a cell viability assay.

BB65-RCC = assay type: functional, cell-based, Homo sapiens; conditions: Homo sapiens, BB65-RCC;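 note: growth inhibition of the cell line, measured with a cell viability assay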
Description: SANGER: Inhibition of human BB65-RCC cell growth in a cell viability assay.

BB30-HNC = assay type: functional, cell-based, Homo sapiens; conditions: Homo sapiens, BB30-HNC;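 note: growth inhibition of the cultured cell line, read out by a cell viability assay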
Description: SANGER: Inhibition of human BB30-HNC cell growth in a cell viability assay.

KS-1 = assay type: functional, cell-based; conditions: Homo sapiens;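 note: growth inhibition of KS-1 cells, read out with a cell viability assay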
Description: SANGER: Inhibition of human KS-1 cell growth in a cell viability assay.

EW-11 = assay type: functional, cell-based, Homo sapiens; conditions: Homo sapiens, EW-11;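 note: growth inhibition of human EW-11 cells, measured with a cell viability assay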
Description: SANGER: Inhibition of human EW-11 cell growth in a cell viability assay.

MLMA = assay type: functional, cell-based, Homo sapiens; conditions: Homo sapiens, MLMA;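 note: growth inhibition of MLMA cells (human), determined through a cell viability readout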
Description: SANGER: Inhibition of human MLMA cell growth in a cell viability assay.

no-10 = assay type: functional, cell-based, Homo sapiens; conditions: Homo sapiens;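 note: growth inhibition of no-10 cells, read out with a cell viability assay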
Description: SANGER: Inhibition of human no-10 cell growth in a cell viability assay.

RPMI-8226 = assay type: functional, cell-based, Homo sapiens; conditions: Homo sapiens, RPMI-8226
Description: SANGER: Inhibition of human RPMI-8226 cell growth in a cell viability assay.

LB771-HNC = assay type: functional, cell-based; conditions: Homo sapiens;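 note: growth inhibition of LB771-HNC human cells, read out with a cell viability assay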
Description: SANGER: Inhibition of human LB771-HNC cell growth in a cell viability assay.

KP-N-YS = assay type: functional, cell-based, Homo sapiens; conditions: Homo sapiens, KP-N-YS;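 note: cell viability assay measuring inhibition of cell line growth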
Description: SANGER: Inhibition of human KP-N-YS cell growth in a cell viability assay.

PSN1 = assay type: functional, cell-based, Homo sapiens; conditions: Homo sapiens, PSN1;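 note: suppression of growth of human PSN1 cells, read out by a cell viability assay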
Description: SANGER: Inhibition of human PSN1 cell growth in a cell viability assay.

ETK-1 = assay type: functional, cell-based, Homo sapiens; conditions: Homo sapiens, ETK-1;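 note: growth inhibition of human ETK-1 cells, read out with a cell viability assay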
Description: SANGER: Inhibition of human ETK-1 cell growth in a cell viability assay.

NCI-H209 = assay type: functional, cell-based, Homo sapiens; conditions: Homo sapiens, NCI-H209;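 note: growth inhibition of human NCI-H209 cells, measured by a cell viability assay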
Description: SANGER: Inhibition of human NCI-H209 cell growth in a cell viability assay.

HD-MY-Z = assay type: functional, cell-based, Homo sapiens; conditions: Homo sapiens, HD-MY-Z;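 note: growth inhibition of HD-MY-Z cells, read out with a cell viability assay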
Description: SANGER: Inhibition of human HD-MY-Z cell growth in a cell viability assay.

JAR = assay type: functional, cell-based, Homo sapiens; conditions: Homo sapiens, JAR;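 note: growth inhibition of human JAR cells determined with a cell viability assay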
Description: SANGER: Inhibition of human JAR cell growth in a cell viability assay.

A704 = assay type: functional, cell-based; conditions: Homo sapiens;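 note: growth inhibition of human A704 cells, read out with a cell viability assay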
Description: SANGER: Inhibition of human A704 cell growth in a cell viability assay.

SW 962 = assay type: functional, cell-based, Homo sapiens; conditions: Homo sapiens, SW 962;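 note: growth inhibition of human SW962 cells, read out by a cell viability assay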
Description: SANGER: Inhibition of human SW962 cell growth in a cell viability assay.

SMILES: NC1(c2ccc(-c3nc4ccn5c(=O)[nH]nc5c4cc3-c3ccccc3)cc2)CCC1 [MK-2206]
- IC50 (8-MG-BA): > 4 µM
- IC50 (A498): > 4 µM
- IC50 (D283 Med): > 4 µM
- IC50 (TE-1): > 4 µM
- IC50 (LS-411N): > 4 µM
- IC50 (C2BBe1): > 4 µM
- IC50 (SJSA-1): > 4 µM
- IC50 (A3-KAW): > 4 µM
- IC50 (D-247MG): > 4 µM
- IC50 (NCI-N87): > 4 µM
- IC50 (IST-MEL1): > 4 µM
- IC50 (NOMO-1): > 4 µM
- IC50 (SK-PN-DW): > 4 µM
- IC50 (DU-4475): > 4 µM
- IC50 (MHH-PREB-1): 3.72 µM
- IC50 (HL-60): > 4 µM
- IC50 (SCH): > 4 µM
- IC50 (SNB-75): > 4 µM
- IC50 (OCUB-M): 0.71 µM
- IC50 (ES5): 0.345 µM
- IC50 (MC116): > 4 µM
- IC50 (TK-10): > 4 µM
- IC50 (HT-144): > 4 µM
- IC50 (GAK): > 4 µM
- IC50 (NB13): > 4 µM
- IC50 (Becker): > 4 µM
- IC50 (U-87 MG): > 4 µM
- IC50 (DSH1): > 4 µM
- IC50 (MEG-01): > 4 µM
- IC50 (BB49-HNC): > 4 µM
- IC50 (GT3TKB): > 4 µM
- IC50 (ES4): > 4 µM
- IC50 (LNCaP-Clone-FGC): 0.61 µM
- IC50 (BB65-RCC): > 4 µM
- IC50 (BB30-HNC): > 4 µM
- IC50 (KS-1): 2.38 µM
- IC50 (EW-11): > 4 µM
- IC50 (MLMA): > 4 µM
- IC50 (no-10): > 4 µM
- IC50 (RPMI-8226): 2.63 µM
- IC50 (LB771-HNC): > 4 µM
- IC50 (KP-N-YS): > 4 µM
- IC50 (PSN1): > 4 µM
- IC50 (ETK-1): > 4 µM
- IC50 (NCI-H209): > 4 µM
- IC50 (HD-MY-Z): > 4 µM
- IC50 (JAR): > 4 µM
- IC50 (A704): > 4 µM
- IC50 (SW 962): > 4 µM

SMILES: CS(=O)(=O)N1CCN(Cc2cc3nc(-c4cccc5[nH]ncc45)nc(N4CCOCC4)c3s2)CC1 [PICTILISIB]
- IC50 (8-MG-BA): > 4 µM
- IC50 (A498): 1.3 µM
- IC50 (D283 Med): 2.36 µM
- IC50 (TE-1): > 4 µM
- IC50 (LS-411N): > 4 µM
- IC50 (C2BBe1): > 4 µM
- IC50 (SJSA-1): 3.71 µM
- IC50 (A3-KAW): > 4 µM
- IC50 (D-247MG): > 4 µM
- IC50 (NCI-N87): 2.13 µM
- IC50 (IST-MEL1): > 4 µM
- IC50 (NOMO-1): > 4 µM
- IC50 (SK-PN-DW): > 4 µM
- IC50 (DU-4475): > 4 µM
- IC50 (MHH-PREB-1): 0.114 µM
- IC50 (HL-60): 0.426 µM
- IC50 (SCH): > 4 µM
- IC50 (SNB-75): 2.02 µM
- IC50 (OCUB-M): > 4 µM
- IC50 (ES5): 0.0502 µM
- IC50 (MC116): > 4 µM
- IC50 (TK-10): 1.67 µM
- IC50 (HT-144): > 4 µM
- IC50 (GAK): > 4 µM
- IC50 (NB13): > 4 µM
- IC50 (Becker): 3.17 µM
- IC50 (U-87 MG): > 4 µM
- IC50 (DSH1): > 4 µM
- IC50 (MEG-01): > 4 µM
- IC50 (BB49-HNC): 1.89 µM
- IC50 (GT3TKB): > 4 µM
- IC50 (ES4): 0.64 µM
- IC50 (BB65-RCC): > 4 µM
- IC50 (BB30-HNC): > 4 µM
- IC50 (KS-1): 2.11 µM
- IC50 (EW-11): > 4 µM
- IC50 (MLMA): > 4 µM
- IC50 (no-10): > 4 µM
- IC50 (RPMI-8226): > 4 µM
- IC50 (LB771-HNC): > 4 µM
- IC50 (KP-N-YS): > 4 µM
- IC50 (PSN1): > 4 µM
- IC50 (ETK-1): > 4 µM
- IC50 (HD-MY-Z): > 4 µM
- IC50 (JAR): > 4 µM
- IC50 (A704): 1.51 µM
- IC50 (SW 962): 3.73 µM

SMILES: CN(C)CCOc1ccc(-c2nc(-c3ccncc3)c(-c3ccc4c(c3)CC/C4=N\O)[nH]2)cc1 [SB590885]
- IC50 (8-MG-BA): > 5 µM
- IC50 (A498): > 5 µM
- IC50 (D283 Med): > 5 µM
- IC50 (TE-1): > 5 µM
- IC50 (LS-411N): > 5 µM
- IC50 (C2BBe1): 1.96 µM
- IC50 (SJSA-1): > 5 µM
- IC50 (A3-KAW): > 5 µM
- IC50 (D-247MG): > 5 µM
- IC50 (NCI-N87): > 5 µM
- IC50 (IST-MEL1): > 5 µM
- IC50 (NOMO-1): > 5 µM
- IC50 (SK-PN-DW): > 5 µM
- IC50 (DU-4475): 0.0235 µM
- IC50 (MHH-PREB-1): > 5 µM
- IC50 (HL-60): > 5 µM
- IC50 (SCH): > 5 µM
- IC50 (SNB-75): > 5 µM
- IC50 (OCUB-M): > 5 µM
- IC50 (ES5): > 5 µM
- IC50 (MC116): > 5 µM
- IC50 (TK-10): > 5 µM
- IC50 (HT-144): 0.435 µM
- IC50 (GAK): > 5 µM
- IC50 (NB13): > 5 µM
- IC50 (Becker): > 5 µM
- IC50 (U-87 MG): > 5 µM
- IC50 (DSH1): > 5 µM
- IC50 (MEG-01): > 5 µM
- IC50 (BB49-HNC): > 5 µM
- IC50 (GT3TKB): > 5 µM
- IC50 (ES4): > 5 µM
- IC50 (LNCaP-Clone-FGC): > 5 µM
- IC50 (BB65-RCC): > 5 µM
- IC50 (BB30-HNC): > 5 µM
- IC50 (KS-1): > 5 µM
- IC50 (EW-11): > 5 µM
- IC50 (MLMA): > 5 µM
- IC50 (no-10): > 5 µM
- IC50 (RPMI-8226): > 5 µM
- IC50 (LB771-HNC): > 5 µM
- IC50 (KP-N-YS): > 5 µM
- IC50 (PSN1): 1.87 µM
- IC50 (ETK-1): > 5 µM
- IC50 (NCI-H209): > 5 µM
- IC50 (HD-MY-Z): > 5 µM
- IC50 (JAR): > 5 µM
- IC50 (A704): > 5 µM
- IC50 (SW 962): > 5 µM
